# Test results as given in patent US20050049220A1, “Dosing regimen for Flaviviridae therapy” (priority 2003, published 2005).
# Where two headings read alike, the source gives them in different places.
# Legend:
# HCV replicon cells = assay: Prevention studies with natural ribo- or 2′-deoxy nucleosides; format: cell-based, human; conditions: test compound at 96 h EC90 value; nucleosides at 50 μM
# HCV replicon RNA [1] = assay: Replicon RNA copy number per cell; format: cell-based, hepatitis C virus (HCV); conditions: for change in replicon RNA copy number per cell (words): 7-day period, treated versus no-treatment controls
# Description: FIG. 4 is a graphical depiction of the log10 changes for replicon RNA levels per cell. The plots were obtained from data collected in FIGS. 2 and 3, in which log10 changes for cell count and replicon RNA levels were subtracted from each other. A. Control antiviral compounds. ●: no drug control; ▾: IFN-α-2a at 100 IU/ml; ▪: ribavirin at 100 μM. B. Selection of the most important anti-metabolites. ●: no drug control; ▾: dFdC at 50 nM; ▪: CP-C at 25 μM; ♦: CPE-C at 2.5 μM; ▴: PALA at 10 μM; ●: PZF at 5 μM.
# To express the specificity of the antiviral action of the control compounds versus the anti-metabolites, the log10 change in replicon RNA copy number per cell and per day was calculated from the above experiments.
# HCV replicon RNA [2] = assay: 7-day dynamics of HCV RNA levels; format: cell-based, hepatitis C virus (HCV); conditions: for effect on HCV RNA levels: 7-day period, at 96 h EC90 value (IFN 100 IU/ml)
# Huh-7 cells = assay: Cellular rRNA levels / cytotoxicity in HCV replicon cells; conditions: 100 μM; 4 days; HCV replicon transfected Huh-7 cells
# Text: In a typical setting, a compound might reduce both the host RNA polymerase activity and the replicon-encoded polymerase activity. Therefore, quantification of rRNA (or any other host RNA polymerase I product) or beta-actin mRNA (or any other host RNA polymerase II) and comparison with RNA levels of the no-drug control is a relative measurement of the effect of the test compound on host RNA polymerases.
# With the availability of both the HCV ΔCt data and the rRNA ΔCt, a specificity parameter can be introduced. This parameter is obtained by subtracting both ΔCt values from each other.
# IFN-α-2a and ribavirin were tested over a range of concentrations for their ability to reduce the HCV RNA levels in exponentially growing replicon cells after 4 days of exposure as described (Stuyver, L. et al. “A ribonucleoside analogue that blocks the replication of bovine viral diarrhea and hepatitis C viruses in culture” Antimicrob. Agents Chemother. 2003, 47, 244-254).
# Gemcitabine was dissolved in DMSO and added to the culture media of a cellular model system of Huh7 cells harboring self-replicating HCV RNA, at final concentrations ranging from […]. In such experiments, one way to express the antiviral effectiveness of a compound is to subtract the threshold reverse-transcriptase polymerase chain reactions (RT-PCR) cycle of the test compound with the average threshold RT-PCR cycle of the negative control. This value is called DeltaCt (ΔCt or dCt). With the availability of both the HCV ΔCt data and the rRNA ΔCt, a specificity parameter can be introduced. This parameter is obtained by subtracting both ΔCt values from each other.
# [3] = system: HCV replicon cells (Huh-7); assay: 7-day cell growth dynamics, trypan-blue cell count; conditions: for effect on cell proliferation: 7-day period, at 96 h EC90 value (ribavirin 100 μM, IFN 100 IU/ml)
# Description: FIG. 2 is a graphical depiction of the dynamics of cell growth and HCV RNA levels after exposure to control anti-HCV compounds. HCV replicon cells were seeded at approximately 10^4 cells per well in a 24-well plate. Over a 7-day period, cells were counted daily, and rRNA and HCV RNA were quantified by Q-RT-PCR. A: IFN-α-2a at 100 IU/ml; B: ribavirin at 100 μM. ●: cell proliferation in absence of compound; ◯: cell proliferation in presence of compound; ▾: HCV RNA levels in untreated cells; ∇: HCV RNA levels in the presence of compound. The curves shown are averages of 3 independent experiments.
# Therefore, experiments were conducted to monitor HCV RNA levels and the cell growth dynamics over a 7-day period.
# The dynamics of HCV replicon cells exposed to these inhibitors (at their EC90 value) was monitored over a 7-day period.
# HCV replicon = HCV replicon assay: HCV RNA by Q-RT-PCR, 4 days exposure; format: cell-based, hepatitis C virus (HCV); conditions: for EC90: read-out: Corrected HCV RNA EC90; for log reduction at 10 µM: read-out: Corrected HCV RNA log10 reduction at 10 μM
# Description: Antiviral screening assays can be done in the same media without G418 as follows: in order to keep cells in logarithmic growth phase, seed cells in a 96-well plate at low density, for example 1000 cells per well. Add the test compound immediate after seeding the cells and incubate for a period of 3 to 7 days at 37° C. in an incubator. Media is then removed, and the cells are prepared for total nucleic acid extraction (including replicon RNA and host RNA). Replicon RNA can then be amplified in a Q-RT-PCR protocol, and quantified accordingly. […] This value is called DeltaCt (ΔCt or DCt).
# This value is called DeltaCt (ΔCt or dCt).
# HCV = conditions: cited from earlier work
# [4] = Hepatitis C virus, 96 h, 100 μM, 4 days, HCV replicon transfected Huh-7 cells, read-out: log10 RNA reduction at 100 μM, HCV
molecule,measurement,setting,value
"NC(=O)c1[nH]nc([C@@H]2O[C@H](CO)[C@@H](O)[C@H]2O)c1O [PZF, pyrazofurin]",prevention of antiviral and cytostatic effects by natural nucleosides,HCV replicon cells,prevented by addition of uridine
same,reduction in replicon RNA levels per cell,"HCV replicon RNA [1]; 5 μM, after 7 days treatment",2.96 log10
same,change in replicon RNA copy number per cell (words),HCV replicon RNA [1],time dependent reduction
same,effect on HCV RNA levels,HCV replicon RNA [2],significantly reduced HCV RNA levels
same,"log10 RNA reduction at 100 μM, rRNA",Huh-7 cells,0.42 ± 0.03 log10
same,effect on cell proliferation,[3],reduced cell proliferation only minimally
same,EC90,"HCV replicon; Hepatitis C virus, 96 h",3.8 µM
same,log reduction at 10 µM,"HCV replicon; Hepatitis C virus, 96 h",1.16 ± 0.21
same,log reduction at 100 µM,"HCV replicon; Hepatitis C virus, 96 h, read-out: Corrected HCV RNA log10 reduction at 100 μM",1.46 ± 0.08
same,log reduction at 100 µM,HCV replicon; [4],1.88 ± 0.05
"NC(=O)c1ncn([C@@H]2O[C@H](CO)[C@@H](O)[C@H]2O)n1 [Ribavirin, 1-β-D-ribofuranosyl-1-1,2,4-triazole-3-carboxamide]",effect on serum levels of HCV-RNA,HCV; HCV patients,does not lower
same,patients with serum amino transferase levels reduced to normal,HCV,40%
same,prevention of antiviral and cytostatic effects by natural nucleosides,HCV replicon cells,2′-deoxyguanosine and guanosine prevented the effects
same,change in replicon RNA copy number per cell (words),HCV replicon RNA [1],only minimally
same,change in replicon RNA copy number per cell (words),HCV replicon RNA [1]; listed as ribavirin,changed only marginally
same,HCV RNA reduction on day 7 compared to untreated controls,HCV replicon RNA [2]; 100 μM,2.08 log10
same,"log10 RNA reduction at 100 μM, rRNA",Huh-7 cells,0.91 ± 0.12 log10
same,log10 reduction in cell growth at day 7 compared to day 0,[3]; 100 μM,0.22±0.1 log10
same,log10 reduction in cell growth compared to the no treatment control on day 7,[3]; 100 μM,1.53 log10
same,effect on cell proliferation,[3],completely inhibited cell proliferation
same,log reduction at 10 µM,"HCV replicon; Hepatitis C virus, 96 h, 10 μM, corrected for rRNA",0.16 ± 0.1
same,log reduction at 100 µM,HCV replicon; [4],1.96 ± 0.28
same,log reduction at 100 µM,"HCV replicon; Hepatitis C virus, 96 h, 100 μM, corrected for rRNA, read-out: Corrected HCV RNA log10 reduction at 100 μM",1.05 ± 0.29
same,EC90,"HCV replicon; Hepatitis C virus, 96 h incubation",~100 µM
Cyclopentylcytosine [CP-C],prevention of antiviral and cytostatic effects by natural nucleosides,HCV replicon cells,addition of cytidine to the culture medium compensated for the inhibitory effects
same,change in replicon RNA copy number per cell (words),HCV replicon RNA [1],profile similar to that seen for IFN-α-2a
same,effect on HCV RNA levels,HCV replicon RNA [2],reduced HCV-replicon RNA levels
same,"log10 RNA reduction at 100 μM, rRNA",Huh-7 cells,0.91 ± 0.13 log10
same,effect on cell proliferation,[3],cytostatic effects
same,Corrected HCV RNA log10 reduction at 10 μM,"HCV replicon; 10 μM, corrected for rRNA",0.64 ± 0.10 log10
same,"log10 RNA reduction at 100 μM, HCV","HCV replicon; 100 μM, 4 days, HCV replicon transfected Huh-7 cells",1.97 ± 0.38 log10
same,Corrected HCV RNA log10 reduction at 100 μM,"HCV replicon; 100 μM, corrected for rRNA",1.06 ± 0.26 log10
same,EC90,HCV replicon; 96 h incubation,25 µM
